Experimental findings from patent US10676479B2, “Imidazolepyridine compounds and uses thereof” (Novartis AG, priority 2016, dated 2020) are described below.

Assay [1] addresses EED (1-441)-His protein (Homo sapiens (Human), UniProt O75530). Kind of assay: EED-H3K27Me3 peptide competition binding assay by AlphaScreen. The settings on record: EED Alphascreen binding Qualified assay.
The target of assay [2] is wild type PRC2 (wtPRC2) complex (Homo sapiens (Human), UniProt O75530). Kind of assay: EED LC-MS assay. Type of assay: biochemical. The settings on record: EED LC-MS Qualified assay; read-out: (b) IC50. On the procedure:
EED LC-MS Assay Representative compounds of the present invention were serially and separately diluted 3-fold in DMSO to obtain a total of eight or twelve concentrations. […] A 6 μL solution of 3 μM of the peptide substrate H3K27Me0 (histone H3[21-44]-biotin) in reaction buffer was added to initiate each reaction. […] The data were then fit to a dose response equation using the program Helios to get the IC50 values of the test compound.

Assay [3] deals with H3K27 methylation in G401 cell. Kind of assay: ELISA (H3K27 methylation) assay. The format is cell-based. The settings on record: Homo sapiens, G-401, ELISA Qualified assay, 48 h, read-out: (c) IC50. The procedure, abridged:
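G401 cells given 3-fold serial dilutions (eight or twelve points, top 20 μM) for 48 h. Lysate ELISA for H3K27 methylation normalized to H3 signal, % inhibition versus DMSO, IC50 from dose-response fit.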

Molecules are shown by their SMILES.

Sequence of EED (1-441)-His protein (O75530 whole entry): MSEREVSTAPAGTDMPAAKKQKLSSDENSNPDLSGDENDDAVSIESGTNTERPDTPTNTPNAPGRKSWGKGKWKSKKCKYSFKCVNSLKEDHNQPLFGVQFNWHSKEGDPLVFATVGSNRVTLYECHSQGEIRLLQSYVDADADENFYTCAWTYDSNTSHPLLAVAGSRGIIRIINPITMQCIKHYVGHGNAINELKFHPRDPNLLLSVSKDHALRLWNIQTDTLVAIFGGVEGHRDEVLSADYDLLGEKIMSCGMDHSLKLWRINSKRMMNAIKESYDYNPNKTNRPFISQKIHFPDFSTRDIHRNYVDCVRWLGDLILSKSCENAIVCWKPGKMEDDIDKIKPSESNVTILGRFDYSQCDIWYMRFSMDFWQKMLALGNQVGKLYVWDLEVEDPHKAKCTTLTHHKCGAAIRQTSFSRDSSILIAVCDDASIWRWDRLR
Sequence of wild type PRC2 (wtPRC2) complex (O75530 whole entry): as above
Sequence of wild type PRC2 (wtPRC2) complex (Q15910 whole entry partner): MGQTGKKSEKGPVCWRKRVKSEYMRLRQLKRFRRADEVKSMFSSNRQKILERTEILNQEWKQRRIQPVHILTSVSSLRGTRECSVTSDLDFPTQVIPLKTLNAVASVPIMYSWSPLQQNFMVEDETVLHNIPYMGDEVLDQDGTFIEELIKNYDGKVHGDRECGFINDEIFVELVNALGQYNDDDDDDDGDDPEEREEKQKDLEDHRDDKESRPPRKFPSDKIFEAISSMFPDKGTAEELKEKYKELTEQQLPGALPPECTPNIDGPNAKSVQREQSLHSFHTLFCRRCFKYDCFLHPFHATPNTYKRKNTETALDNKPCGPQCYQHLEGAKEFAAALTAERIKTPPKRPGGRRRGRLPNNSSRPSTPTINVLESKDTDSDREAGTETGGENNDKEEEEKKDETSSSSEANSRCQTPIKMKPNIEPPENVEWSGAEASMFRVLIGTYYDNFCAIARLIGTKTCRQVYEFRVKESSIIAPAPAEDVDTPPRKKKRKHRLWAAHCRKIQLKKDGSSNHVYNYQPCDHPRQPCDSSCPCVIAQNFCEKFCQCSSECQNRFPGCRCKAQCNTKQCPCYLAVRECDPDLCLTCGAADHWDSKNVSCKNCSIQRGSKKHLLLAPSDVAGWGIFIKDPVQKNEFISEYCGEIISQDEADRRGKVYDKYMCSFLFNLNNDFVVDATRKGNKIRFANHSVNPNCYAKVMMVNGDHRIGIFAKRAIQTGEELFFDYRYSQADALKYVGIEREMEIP
Sequence of wild type PRC2 (wtPRC2) complex (Q15022 whole entry partner): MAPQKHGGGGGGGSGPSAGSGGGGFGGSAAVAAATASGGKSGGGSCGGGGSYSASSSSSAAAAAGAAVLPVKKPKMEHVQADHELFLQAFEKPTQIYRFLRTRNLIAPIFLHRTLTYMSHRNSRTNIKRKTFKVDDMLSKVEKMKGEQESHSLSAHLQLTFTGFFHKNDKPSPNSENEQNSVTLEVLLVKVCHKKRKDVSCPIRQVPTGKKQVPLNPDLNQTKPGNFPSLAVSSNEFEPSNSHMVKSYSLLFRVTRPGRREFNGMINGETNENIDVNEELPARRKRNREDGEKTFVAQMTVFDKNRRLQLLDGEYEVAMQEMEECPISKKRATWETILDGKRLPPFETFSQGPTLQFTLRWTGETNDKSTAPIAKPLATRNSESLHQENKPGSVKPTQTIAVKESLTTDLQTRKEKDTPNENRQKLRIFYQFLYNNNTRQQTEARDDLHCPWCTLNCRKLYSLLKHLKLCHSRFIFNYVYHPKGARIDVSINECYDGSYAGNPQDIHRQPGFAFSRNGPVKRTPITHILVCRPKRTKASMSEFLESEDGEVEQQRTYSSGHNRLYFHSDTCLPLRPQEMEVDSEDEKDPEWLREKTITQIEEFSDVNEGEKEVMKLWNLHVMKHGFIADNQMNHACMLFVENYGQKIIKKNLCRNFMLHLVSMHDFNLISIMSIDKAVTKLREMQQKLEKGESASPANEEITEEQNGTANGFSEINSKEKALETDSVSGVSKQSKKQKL

Regarding `Cn1cncc1-c1cnc(NCc2c(F)ccc3c2CCO3)n2cnc(C#N)c12` [Example 85, 5-(((5-fluoro-2,3-dihydrobenzofuran-4-yl)methyl)amino)-8-(1-methyl-1H-imidazol-5-yl)imidazo[1,5-c]pyrimidine-1-carbonitrile], the values for the IC50 in assay [1], in assay [2] and in assay [3] were 4.5 nM, 17.2 nM and 2.8 nM, respectively.
Regarding `CCOC(=O)c1ncn2c(NCc3cc(OC)c(F)cc3F)ncc(-c3ccc(S(=O)(=O)N(C)C)cc3)c12` [Example 97, ethyl 5-((2,4-difluoro-5-methoxybenzyl)amino)-8-(4-(N,N-dimethylsulfamoyl)phenyl)imidazo[1,5-c]pyrimidine-1-carboxylate], the IC50 amounted to 19.6 nM in assay [1], 16.7 nM in assay [2] and 200 nM in assay [3].
Turning to `N#Cc1ncn2c(NCc3c(F)ccc4c3CCO4)ncc(-c3cccnc3C(F)F)c12` [Example 73, 8-(2-(difluoromethyl)pyridin-3-yl)-5-(((5-fluoro-2,3-dihydrobenzofuran-4-yl)methyl)amino)imidazo[1,5-c]pyrimidine-1-carbonitrile], the IC50 came to 23.5 nM in assay [1], 56.4 nM in assay [2] and 55.3 nM in assay [3].
Regarding `Cc1ncccc1-c1cnc(NCc2c(F)ccc3c2CCO3)n2cnc(CO)c12` [Example 120, (5-(((5-fluoro-2,3-dihydrobenzofuran-4-yl)methyl)amino)-8-(2-methylpyridin-3-yl)imidazo[1,5-c]pyrimidin-1-yl)methanol], the IC50 in assay [1] is 11.4 nM; in assay [2], 24.1 nM; in assay [3] it was 15.6 nM.
Consider `CC(=O)N1CCN(c2ccc(-c3cnc(NCc4c(F)ccc5c4CCO5)n4cnc(C#N)c34)cn2)CC1` [Example 87, 8-(6-(4-acetylpiperazin-1-yl)pyridin-3-yl)-5-(((5-fluoro-2,3-dihydrobenzofuran-4-yl)methyl)amino)imidazo[1,5-c]pyrimidine-1-carbonitrile], for which the IC50 in assay [1] turned out to be 17 nM; in assay [2], 29.7 nM; in assay [3] it was 13.4 nM.
In the case of `CS(=O)(=O)c1ccc(-c2cnc(NCc3c(F)ccc4c3CCO4)n3cnc(Cl)c23)cc1` [Example 109, 1-chloro-N-((5-fluoro-2,3-dihydrobenzofuran-4-yl)methyl)-8-(4-(methylsulfonyl)phenyl)imidazo[1,5-c]pyrimidin-5-amine], the IC50 in assay [1] was determined as 12.2 nM; in assay [2], 15 nM; in assay [3] it was 99.4 nM.
Consider `CN(C)S(=O)(=O)c1ccc(-c2cnc(NCc3c(F)ccc4c3CCO4)n3cncc23)cc1` [Example 18, 4-(5-(((5-fluoro-2,3-dihydrobenzofuran-4-yl)methyl)amino)imidazo[1,5-c]pyrimidin-8-yl)-N,N-dimethylbenzenesulfonamide], for which the values for the 50% inhibitory concentration (IC50) in assay [1], in assay [2] and in assay [3] were 10.1 nM, 15.1 nM and 46 nM, respectively.
Consider `COc1cccc(F)c1CNc1ncc(-c2cccnc2C)c2c(C#N)ncn12` [Example 90, 5-((2-fluoro-6-methoxybenzyl)amino)-8-(2-methylpyridin-3-yl)imidazo[1,5-c]pyrimidine-1-carbonitrile], for which the IC50 in assay [1] was 139 nM; in assay [2], 56.8 nM; in assay [3], 337 nM.
Taken in the same sequence, the figures for `c1cc(CNc2ncc(-c3ccc(N4CCNCC4)nc3)c3cncn23)c2ccoc2c1` [Example 66, N-(benzofuran-4-ylmethyl)-8-(6-(piperazin-1-yl)pyridin-3-yl)imidazo[1,5-c]pyrimidin-5-amine] were 72.1 nM, 49.3 nM and 444 nM.
The like results for `Cc1ncc(-c2cnc(NCc3c(F)ccc4c3CCO4)n3cnc(S(=O)(=O)c4ccccc4)c23)c(C)n1` [Example 15, 8-(2,4-dimethylpyrimidin-5-yl)-N-((5-fluoro-2,3-dihydrobenzofuran-4-yl)methyl)-1-(phenylsulfonyl)imidazo[1,5-c]pyrimidin-5-amine] were, in that order, 15.2 nM, 29.8 nM and 7.8 nM.
For the compound `Cc1cc(-c2cnc(NCc3c(F)ccc4c3CCO4)n3cnc(C#N)c23)n(C)n1` [Example 5, 8-(1,3-Dimethyl-1H-pyrazol-5-yl)-5-(((5-fluoro-2,3-dihydrobenzofuran-4-yl)methyl)amino)imidazo[1,5-c]pyrimidine-1-carbonitrile], the concentration for half-maximal inhibition (IC50) in assay [1] came out at 3.5 nM; in assay [2] it was 8.9 nM; in assay [3] it was 3.2 nM.
In the case of `CS(=O)(=O)c1ccc(-c2cnc(NCc3c(F)ccc4c3CCO4)n3cncc23)cn1` [Example 22, N-((5-fluoro-2,3-dihydrobenzofuran-4-yl)methyl)-8-(6-(methylsulfonyl)pyridin-3-yl)imidazo[1,5-c]pyrimidin-5-amine], the half-maximal inhibitory concentration (IC50) was determined as 5.5 nM in assay [1], 9.8 nM in assay [2] and 56.3 nM in assay [3].
With `Cc1ncc(-c2cnc(NCc3c(F)ccc4c3CCO4)n3cnc(Cl)c23)c(C)n1` [Example 9, 1-chloro-8-(2,4-dimethylpyrimidin-5-yl)-N-((5-fluoro-2,3-dihydrobenzofuran-4-yl)methyl)imidazo[1,5-c]pyrimidin-5-amine], the IC50 was 10.4 nM in assay [1], 11 nM in assay [2] and 10.9 nM in assay [3].
Taken in the same sequence, the figures for `Cc1ncc(-c2cnc(NCc3c(F)ccc4c3CCO4)n3cnc(S(C)(=O)=O)c23)c(C)n1` [Example 101, 8-(2,4-dimethylpyrimidin-5-yl)-N-((5-fluoro-2,3-dihydrobenzofuran-4-yl)methyl)-1-(methylsulfonyl)imidazo[1,5-c]pyrimidin-5-amine] were 3.6 nM, 13.3 nM and 9.1 nM.
Turning to `Cn1nccc1-c1cnc(NCc2c(F)ccc3c2CCO3)n2cncc12` [Example 33, N-((5-fluoro-2,3-dihydrobenzofuran-4-yl)methyl)-8-(1-methyl-1H-pyrazol-5-yl)imidazo[1,5-c]pyrimidin-5-amine], the IC50 in assay [1] was 7.5 nM; in assay [2] it was 15.9 nM; in assay [3] it was 22.1 nM.
Take `NS(=O)(=O)c1ccc(-c2cnc(NCc3c(F)ccc4c3CCO4)n3cncc23)cc1` [Example 23, 4-(5-(((5-fluoro-2,3-dihydrobenzofuran-4-yl)methyl)amino)imidazo[1,5-c]pyrimidin-8-yl)benzenesulfonamide]: the IC50 in assay [1] turned out to be 12.7 nM; in assay [2] it was 12.9 nM; in assay [3], 33.6 nM.
The like results for `CN(C)CCc1ccc(-c2cnc(NCc3c(F)ccc4c3CCO4)n3cncc23)cn1` [Example 32, 8-(6-(2-(dimethylamino)ethyl)pyridin-3-yl)-N-((5-fluoro-2,3-dihydrobenzofuran-4-yl)methyl)imidazo[1,5-c]pyrimidin-5-amine] were, in that order, 8.7 nM, 24.7 nM and 40.4 nM.
As for `Cc1nc(C(F)(F)CO)ccc1-c1cnc(NCc2c(F)ccc3c2CCO3)n2cncc12` [Example 56, 2,2-difluoro-2-(5-(5-(((5-fluoro-2,3-dihydrobenzofuran-4-yl)methyl)amino)imidazo[1,5-c]pyrimidin-8-yl)-6-methylpyridin-2-yl)ethan-1-ol], the IC50 in assay [1] worked out at 4.8 nM; in assay [2] it was 18.2 nM; in assay [3], 20.9 nM.
For `Cc1nc(S(C)(=O)=O)ccc1-c1cnc(NCc2c(F)ccc3c2CCO3)n2cncc12` [Example 38, N-((5-fluoro-2,3-dihydrobenzofuran-4-yl)methyl)-8-(2-methyl-6-(methylsulfonyl)pyridin-3-yl)imidazo[1,5-c]pyrimidin-5-amine], the values for the half-inhibitory concentration (IC50) in assay [1], in assay [2] and in assay [3] were 9.4 nM, 20.8 nM and 47.7 nM, respectively.
The like results for `Cc1nn(C)c(C)c1-c1cnc(NCc2c(F)ccc3c2CCO3)n2cncc12` [Example 46, N-((5-fluoro-2,3-dihydrobenzofuran-4-yl)methyl)-8-(1,3,5-trimethyl-1H-pyrazol-4-yl)imidazo[1,5-c]pyrimidin-5-amine] were, in that order, 18.4 nM, 22.8 nM and 112 nM.
Taken in the same sequence, the figures for `CCOC(=O)c1ncn2c(NCc3c(F)cccc3OC)ncc(-c3cnc(C)nc3C)c12` [Example 98, ethyl 8-(2,4-dimethylpyrimidin-5-yl)-5-((2-fluoro-6-methoxybenzyl)amino)imidazo[1,5-c]pyrimidine-1-carboxylate] were 24 nM, 24.8 nM and 31.6 nM.
Consider `Cc1cn(-c2cnc(NCc3c(F)ccc4c3CCO4)n3cncc23)cn1` [Example 62, N-((5-fluoro-2,3-dihydrobenzofuran-4-yl)methyl)-8-(4-methyl-1H-imidazol-1-yl)imidazo[1,5-c]pyrimidin-5-amine], for which the half-maximal inhibitory concentration (IC50) in assay [1] came to 3.7 nM; in assay [2], 6.6 nM; in assay [3], 13.2 nM.
Take `Cc1ccc(-c2cnc(NCc3c(F)ccc4c3CCO4)n3cnc(C#N)c23)c(C)n1` [Example 75, 8-(2,6-dimethylpyridin-3-yl)-5-(((5-fluoro-2,3-dihydrobenzofuran-4-yl)methyl)amino)imidazo[1,5-c]pyrimidine-1-carbonitrile]: the IC50 in assay [1] was determined as 8.4 nM; in assay [2], 16.7 nM; in assay [3], 45.5 nM.
Turning to `CS(=O)(=O)c1ncn2c(NCc3c(F)ccc4c3CCO4)ncc(-c3cccnc3)c12` [Example 102, N-((5-fluoro-2,3-dihydrobenzofuran-4-yl)methyl)-1-(methylsulfonyl)-8-(pyridin-3-yl)imidazo[1,5-c]pyrimidin-5-amine], the IC50 came out at 6.9 nM in assay [1], 17 nM in assay [2] and 2.4 nM in assay [3].
